Assay results published in paper PMC12292521, “Discovery of a Potent Antimicrobial Peptide Through Rational Design: A New Frontier in Pathogen Control” (Biomolecules, 2025).

What was measured:
[1] = tested on: Enterococcus faecium; test: Antimicrobial susceptibility by disk diffusion (EUCAST); assay type: cell-based
Method: (§1) The antimicrobial susceptibility of the four ESKAPE bacteria Acinetobacter baumannii, Enterococcus faecium, P. aeruginosa, and S. aureus, made available by the culture collection of IZSM, was evaluated by the disk diffusion method. Antimicrobials used were different and specific per each bacterium under study. […] Thereby, the diameter of the inhibition zones was measured, and bacteria were classified as resistant or sensitive per antibiotic tested in agreement with the European Committee for Antimicrobial Susceptibility Testing (EUCAST, 2025) breakpoints.

[2] = tested on: Staphylococcus aureus (MRSA); test: as above; assay type: cell-based
Method: as §1

SMILES | Susceptibility of the strain, in words [1] | Susceptibility of the strain, in words [2]
CC1(C)S[C@@H]2[C@H](NC(=O)[C@H](N)c3ccccc3)C(=O)N2[C@H]1C(=O)O [Ampicillin] | resistant | –
CO[C@@]1(NC(=O)Cc2cccs2)C(=O)N2C(C(=O)O)=C(COC(N)=O)CS[C@@H]21 [Cefoxitin] | – | important resistance was detected
O=C(O)c1cn(C2CC2)c2cc(N3CCNCC3)c(F)cc2c1=O [Ciprofloxacin] | resistant | important resistance was detected
CC[C@H]1OC(=O)[C@H](C)[C@@H](O[C@H]2C[C@@](C)(OC)[C@@H](O)[C@H](C)O2)[C@H](C)[C@@H](O[C@@H]2O[C@H](C)C[C@H](N(C)C)[C@H]2O)[C@](C)(O)C[C@@H](C)C(=O)[C@H](C)[C@@H](O)[C@]1(C)O [Erythromycin] | – | important resistance was detected
C[C@H]1COc2c(N3CCN(C)CC3)c(F)cc3c(=O)c(C(=O)O)cn1c23 [Levofloxacin] | resistant | important resistance was detected
CN[C@H](CC(C)C)C(=O)N[C@H]1C(=O)N[C@@H](CC(N)=O)C(=O)N[C@H]2C(=O)N[C@H]3C(=O)N[C@H](C(=O)N[C@H](C(=O)O)c4cc(O)cc(O)c4-c4cc3ccc4O)[C@H](O)c3ccc(c(Cl)c3)Oc3cc2cc(c3O[C@@H]2O[C@H](CO)[C@@H](O)[C@H](O)[C@H]2O[C@H]2C[C@](C)(N)[C@H](O)[C@H](C)O2)Oc2ccc(cc2Cl)[C@H]1O [Vancomycin] | resistant | –
